Reference: ChEMBL document CHEMBL1159019, “A strategy for identifying novel, mechanistically unique inhibitors of topoisomerase I” (J Nat Prod, 1992)

Tests used:
[1] = target: T1, DNA topoisomerase 1 (Homo sapiens, UniProt P11387); test: Inhibition of human COLO201 cellular topoisomerase-1 mediated plasmid DNA cleavage by electrophoresis in presence of 70 units of enzyme
T1 sequence (P11387 whole entry): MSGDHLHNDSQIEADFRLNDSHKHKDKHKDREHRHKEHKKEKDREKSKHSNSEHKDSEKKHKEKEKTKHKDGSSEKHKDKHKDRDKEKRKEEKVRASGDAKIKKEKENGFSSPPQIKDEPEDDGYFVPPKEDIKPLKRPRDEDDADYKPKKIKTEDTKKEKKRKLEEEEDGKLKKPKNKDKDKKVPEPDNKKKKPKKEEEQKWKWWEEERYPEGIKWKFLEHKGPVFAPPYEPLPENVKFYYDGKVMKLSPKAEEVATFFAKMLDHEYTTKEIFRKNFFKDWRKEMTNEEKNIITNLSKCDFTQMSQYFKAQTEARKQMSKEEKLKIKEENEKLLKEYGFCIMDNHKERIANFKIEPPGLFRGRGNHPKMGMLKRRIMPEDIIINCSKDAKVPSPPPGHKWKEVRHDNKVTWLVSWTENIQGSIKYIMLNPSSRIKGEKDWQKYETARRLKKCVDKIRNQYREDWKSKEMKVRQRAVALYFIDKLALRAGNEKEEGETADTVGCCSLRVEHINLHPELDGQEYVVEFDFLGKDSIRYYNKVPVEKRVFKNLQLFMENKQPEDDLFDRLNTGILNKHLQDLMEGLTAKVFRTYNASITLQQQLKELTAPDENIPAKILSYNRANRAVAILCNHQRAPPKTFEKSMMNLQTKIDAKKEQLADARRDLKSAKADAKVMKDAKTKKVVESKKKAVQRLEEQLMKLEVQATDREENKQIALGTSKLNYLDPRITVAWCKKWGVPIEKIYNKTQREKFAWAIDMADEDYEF

[2] = target: T1, DNA topoisomerase 1; test: Inhibition of human COLO201 cellular topoisomerase-1 mediated plasmid DNA cleavage by electrophoresis in presence of 14 units of enzyme

**Q.** `O=C(O)C[C@@H]1C(=O)O[C@H]2[C@@H]3OC(=O)c4cc(O)c(O)c(O)c4-c4c(cc(O)c(O)c4O)C(=O)OC[C@H]2O[C@@H](OC(=O)c2cc(O)c(O)c(O)c2)[C@@H]3OC(=O)c2cc(O)c(O)c3c2[C@H]1[C@H](O)C(=O)O3` [CHEBULAGIC ACID] was tested. Which IC50 [1] did it give?
**A.** 100 nM

**Q.** And the IC50 [2]?
**A.** 50 nM

**Q.** How did the IC50 [1] turn out when `O=C(O[C@@H]1O[C@@H]2COC(=O)c3cc(O)c(O)c(O)c3-c3c(cc(O)c(O)c3O)C(=O)O[C@H]([C@H]1O)[C@@H]2O)c1cc(O)c(O)c(O)c1` [CORILAGIN] was run?
**A.** 40000 nM
